From PubChem BioAssay (NCI)
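48-hour exposure; five concentrations; linearly interpolated endpoints. Abbreviation: GI50, concentration required for 50% inhibition of growth. Definition used: TGI = concentration required for complete inhibition of growth.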 Where a SMILES comes first, the peptide text is derived from it. The star is where a group is joined. Boc = CC(C)(C)OC(=O)*

Experiments:
Experiment in all cases: NCI tumour cell line growth inhibition, 48 h
786-0 renal = test system: 786-0 renal
COLO 205 colon = test system: COLO 205 colon
DU-145 prostate = test system: DU-145 prostate
HOP-92 NSCLC = test system: HOP-92 NSCLC
HT29 colon = test system: HT29 colon
K-562 leukemia = test system: K-562 leukemia
MDA-MB-231 breast = test system: MDA-MB-231 breast
NCI-H226 lung = test system: NCI-H226 lung
NCI-H460 lung = test system: NCI-H460 lung
OVCAR-5 ovarian = test system: OVCAR-5 ovarian

Row | Compound | TGI (786-0 renal) [µM] | TGI (COLO 205 colon) [µM] | TGI (DU-145 prostate) [µM] | TGI (HOP-92 NSCLC) [µM] | TGI (HT29 colon) [µM] | TGI (K-562 leukemia) [µM] | TGI (MDA-MB-231 breast) [µM] | TGI (NCI-H226 lung) [µM] | TGI (NCI-H460 lung) [µM] | TGI (OVCAR-5 ovarian) [µM] | GI50 (COLO 205 colon) [µM] | GI50 (DU-145 prostate) [µM] | GI50 (NCI-H460 lung) [µM] | GI50 (OVCAR-5 ovarian) [µM] | GI50 (HOP-92 NSCLC) [µM] | GI50 (HT29 colon) [µM] | GI50 (MDA-MB-231 breast) [µM] | GI50 (NCI-H226 lung) [µM]
1 | O=C1OC2(C(F)(F)F)Oc3ccccc3CN2C12CCCCC2 (stereo not drawn) | > 100 | 34.7 | > 100 | 61.7 | > 100 | 52.6 | 59.5 | 90.8 | 66.4 | > 100 |  |  |  |  |  |  |  | 
2 | Cc1cc2ccccc2n1CC(=O)N1CCCC1 | > 100 | > 100 | > 100 | > 100 | > 100 | > 100 | > 100 | > 100 | > 100 | > 100 |  |  |  |  |  |  |  | 
3 | CC1CC[C@@]2(OC1)O[C@H]1C[C@H]3[C@@H]4CC[C@H]5C[C@@H](OC6OC(CO)C(OC7OC(CO)C(OC8OC(CO)C(O)C(OC9OC(C)C(OC%10OC(C)C(O)C(O)C%10O)C(O)C9O)C8OC8OCC(O)C(O)C8O)C(O)C7O)C(O)C6O)CC[C@]5(C)[C@H]4CC(=O)[C@]3(C)[C@H]1[C@@H]2C (stereo partly drawn) | 54.9 | 30.1 | 40.4 | 38.2 | > 100 | 32.7 | 30.1 | 35.5 | 32.9 | 40.3 |  |  |  |  |  |  |  | 
4 | CCCC(CC)c1c(O)c(O)c(C(CC)CCC)c(C(CC)CCC)c1C(CC)CCC (stereo not drawn) | > 10 | > 10 | > 10 | > 10 | > 10 | > 10 | > 10 | > 10 | > 10 | > 10 |  |  |  |  |  |  |  | 
5 | COc1ccc(Oc2nc3ccc(C(F)(F)F)cc3nc2-c2ccccc2)cc1 | > 100 | > 100 | > 100 | > 100 | > 100 | > 100 | > 100 | > 100 | > 100 | > 100 |  |  |  |  |  |  |  | 
6 | COC(=O)C(Cc1c[nH]c2ccccc12)NC(=O)C(Cc1c[nH]c2ccccc12)NC(=O)C(Cc1c[nH]c2ccccc12)NC(=O)C(Cc1c[nH]c2ccccc12)NC(=O)OC(C)(C)C (stereo not drawn) (Boc-WWWW-OMe; configuration not given here) | > 100 |  | > 100 |  | 49 | > 100 | > 100 | > 100 | > 100 | > 100 |  |  |  |  |  |  |  | 
7 | CSc1nc(NC2OCC(O)C(O)C2O)c(N)c(=O)n1C (stereo not drawn) |  | > 100 |  | > 100 | > 100 | > 100 |  | > 100 | > 100 | > 100 |  |  |  |  |  |  |  | 
8 | CCOC(=O)c1c2c(n(-c3ccc(OC)cc3)c1C)C(=O)C(=O)c1ccccc1-2 | 3.5 | 5.31 | 3.06 | 3.98 | > 22.7 |  | 4.37 | 4.12 | 5.36 | 3.46 |  |  |  |  |  |  |  | 
9 | CCc1nn(S(=O)(=O)c2ccc(C)cc2)c2c1CS(=O)(=O)CC2 | > 100 | > 100 | > 100 |  | > 100 | > 100 | > 100 |  | > 100 | > 100 |  |  |  |  |  |  |  | 
10 | CC1(C)[C@@H](Cn2cnc3c(=O)[nH]c(N)nc32)CC[C@@]1(C)CO | > 100 |  | > 100 | > 100 |  | > 100 | > 100 | > 100 |  | > 100 |  |  |  |  |  |  |  | 
11 | COC(=O)/C=C\C(C#N)(C#N)N=Cc1ccc(C)s1 | 3.2 | 2.93 | 9.11 | 3.24 |  | > 100 | 18.3 | 31.4 | 40.7 | 15.9 |  |  |  |  |  |  |  | 
12 | Fc1ccc(C2CC(c3cccc(Nc4ccncc4)c3)=NN2c2cc(Cl)cc(Cl)c2)cc1 (stereo not drawn) |  | 4.81 | 3.32 |  |  |  |  |  | 3.55 | 3.16 | 2.21 | 1.85 | 1.87 | 1.73 |  |  |  | 
13 | OCC(O)C1OC2CC1Nc1ccccc1N2 (stereo not drawn) | > 100 | > 100 | > 100 | > 100 | > 100 | > 100 | > 100 | > 100 | > 100 |  |  |  |  |  |  |  |  | 
14 | COc1ccccc1NC(=S)N/N=C(/C)c1ccccn1 | 5.17 |  | > 100 | > 100 | > 100 | > 100 | 7.46 |  | 3.22 | > 100 |  |  |  |  |  |  |  | 
15 | C[C@@H]1C[C@]2(C[C@@H](C)[C@H]3C(C[C@@]4(C)CCC[C@@H]5C6=C[C@H](CCC34C)OC6=CC(=O)OC5(C)C)O2)OC1=O (stereo partly drawn) |  | > 51.5 |  | > 51.5 | > 51.5 | > 51.5 |  |  | > 51.5 | > 51.5 |  |  |  |  |  |  |  | 
16 | COc1ccc(C[C@H](N)C(=O)N2C[C@H](CO)C[C@H](n3ccc(=O)[nH]c3=O)C2)cc1 |  | > 100 |  | > 100 | > 100 | > 100 |  | > 100 | > 100 | > 100 |  |  |  |  |  |  |  | 
17 | [N-]=[N+]=NC1CC(n2cc(COCC(F)(F)F)c(=O)[nH]c2=O)OC1CO (stereo not drawn) | > 100 | > 100 |  | > 100 | > 100 | > 100 |  |  | > 100 | > 100 |  |  |  |  |  |  |  | 
18 | CC(C)[C@H]1NC(=O)[C@H]2N=C(O[C@@H]2C)[C@@H]2CCCN2C(=O)[C@H](Cc2ccccc2)NC(=O)[C@@H]2CSC(=N2)[C@@H](Cc2ccccc2)NC(=O)[C@@H]2CSC1=N2 | > 100 | > 100 | > 100 |  | > 100 | > 100 | > 100 | > 100 |  | > 100 |  |  |  |  |  |  |  | 
19 | Cc1cccc2nc3cccc(C(=O)NCCC[N+](C)(CCCNC(=O)c4cccc5nc6cccc(C)c6nc45)Cc4c([N+](=O)[O-])ncn4C)c3nc12 | > 1100 | > 1100 | > 1100 | > 1100 | 96.5 | > 1100 | > 1100 | 267 | 257 |  | 184 | 20.8 | 2.15 |  | > 1100 | 1.96 | > 1100 | 0.11
20 | CC(C)(C)OC(=O)NC(Cc1ccc(O)cn1)C(N)=O (stereo not drawn) | > 100 | > 100 | > 100 | > 100 | > 100 |  | > 100 | > 100 | > 100 | > 100 |  |  |  |  |  |  |  | 
21 | Oc1ccc2c(c1)CC[N+]1=C2CCC2CCCC21 (stereo not drawn) | > 100 | > 100 |  | > 100 | > 100 |  |  | > 100 | > 100 | > 100 |  |  |  |  |  |  |  | 
